# Test results as given in ChEMBL document CHEMBL5113415, “Synthesis of 10,10'-bis(trifluoromethyl) marinopyrrole A derivatives and evaluation of their antiviral activities in vitro” (Eur J Med Chem, 2022).
# Assays:
# [1] = Cytotoxicity against […] infected with JEV-SA14 incubated for 7 days by CellTiter 96 luminescent cell viability assay; format: toxicity, cell-based; settings: time 7 day
# [2] = system: Japanese encephalitis virus; assay: Antiviral activity against JEV-SA14 infected in […] incubated for 7 days by CellTiter 96 luminescent cell viability assay; format: functional, organism-based; settings: 168 h
# [3] = Selectivity index, ratio of CC50 for […] to IC50 for JEV-SA14 infected in […]; format: toxicity, cell-based; settings: read-out: Ratio CC50/IC50
# [4] = Selectivity index, ratio of CC50 for […] to IC50 for ZIKV-SMGC-1 infected in […]; format: toxicity, cell-based; settings: read-out: Ratio CC50/IC50
# Zika virus = assay: Antiviral activity against ZIKV-SMGC-1 infected in […] incubated for 7 days by CellTiter 96 luminescent cell viability assay; format: functional, organism-based; settings: SMGC-1, BHK, 168 h
# Yellow fever virus = assay: Antiviral activity against YFV-17D infected in […] incubated for 7 days by CellTiter 96 luminescent cell viability assay; format: functional, organism-based; settings: 168 h
# [5] = Selectivity index, ratio of CC50 for […] to IC50 for YFV-17D infected in […]; format: toxicity, cell-based; settings: read-out: Ratio CC50/IC50
# [6] = Cytotoxicity against […] infected with ZIKV-SMGC-1 incubated for 7 days by CellTiter 96 luminescent cell viability assay; format: toxicity, cell-based; settings: time 7 day
# [7] = Cytotoxicity against […] infected with YFV-17D incubated for 7 days by CellTiter 96 luminescent cell viability assay; format: toxicity, cell-based; settings: time 7 day
# [8] = Selectivity index, ratio of CC50 for […] to IC50 for DENV-NGC infected in […]; format: toxicity, cell-based; settings: read-out: Ratio CC50/IC50
# [9] = Cytotoxicity against human RD cells infected with CA16 incubated for 3 days by CellTiter 96 luminescent cell viability assay; format: toxicity, cell-based; settings: time 3 day
# Dengue virus = assay: Antiviral activity against DENV-NGC-1 infected in […] incubated for 7 days by CellTiter 96 luminescent cell viability assay; format: functional, organism-based; settings: NGC-1, BHK, 168 h
# Coxsackievirus A16 = assay: Antiviral activity against CA16 infected in human RD cells incubated for 3 days by CellTiter 96 luminescent cell viability assay; format: functional, organism-based; settings: Enterovirus A, 72 h
# [10] = Selectivity index, ratio of CC50 for human RD cells to IC50 for CA16 infected in human RD cells; format: toxicity, cell-based; settings: read-out: Ratio CC50/IC50
# [11] = Cytotoxicity against […] infected with DENV-NGC-1 incubated for 7 days by CellTiter 96 luminescent cell viability assay; format: toxicity, cell-based; settings: time 7 day
# Enterovirus A71 = assay: Antiviral activity against EV71 infected in human RD cells incubated for 3 days by CellTiter 96 luminescent cell viability assay; format: functional, organism-based; settings: Enterovirus A, 71, RD, 72 h
# [12] = Selectivity index, ratio of CC50 for human RD cells to IC50 for EV71 infected in human RD cells; format: toxicity, cell-based; settings: read-out: Ratio CC50/IC50
# [13] = Cytotoxicity against human RD cells infected with EV71 incubated for 3 days by CellTiter 96 luminescent cell viability assay; format: toxicity, cell-based; settings: time 3 day
SMILES,CC50 at 168 h [1],IC50 [2],selectivity ratio [3],selectivity ratio [4],IC50 (Zika virus),IC50 (Yellow fever virus),selectivity ratio [5],CC50 at 168 h [6],CC50 at 168 h [7],selectivity ratio [8],CC50 at 72 h [9],IC50 (Dengue virus),IC50 (Coxsackievirus A16),selectivity ratio [10],CC50 at 168 h [11],IC50 (Enterovirus A71),selectivity ratio [12],CC50 at 72 h [13]
O=C(c1ccc(C(F)(F)F)cc1O)c1[nH]c(Cl)c(Cl)c1-n1c(C(=O)c2ccc(C(F)(F)F)cc2O)cc(Cl)c1Sc1nc[nH]n1,18.7 µM,29.4 µM,0.64,2.44,5.67 µM,24.3 µM,0.77,13.8 µM,18.7 µM,–,–,–,–,–,–,–,–,–
O=C(c1ccc(C(F)(F)F)cc1O)c1[nH]c(Cl)c(Cl)c1-n1c(C(=O)c2ccc(C(F)(F)F)cc2O)cc(Cl)c1Sc1cccc[n+]1[O-],–,–,–,–,–,3.13 µM,2.58,–,8.06 µM,2.19,8.51 µM,3.68 µM,1.07 µM,7.95,8.06 µM,–,–,–
O=C(c1ccc(C(F)(F)F)cc1O)c1[nH]c(Cl)c(Cl)c1-n1c(C(=O)c2ccc(C(F)(F)F)cc2O)cc(Cl)c1Sc1nc2ccccc2s1,1.18 µM,0.7 µM,1.68,0.12,0.91 µM,0.82 µM,1.43,17.1 µM,1.17 µM,0.11,1.46 µM,1.04 µM,0.13 µM,11.3,0.11 µM,–,–,–
O=C(c1ccc(C(F)(F)F)cc1O)c1[nH]c(Cl)c(Cl)c1-n1c(C(=O)c2ccc(C(F)(F)F)cc2O)cc(Cl)c1Cl,–,> 200 µM,–,–,> 0.3 µM,> 200 µM,–,–,–,–,0.25 µM,> 0.3 µM,0.01 µM,24.6,–,0.06 µM,1.96,0.12 µM
O=C(c1ccc(C(F)(F)F)cc1O)c1[nH]c(Cl)c(Cl)c1-n1c(C(=O)c2ccc(C(F)(F)F)cc2O)cc(Cl)c1Sc1ncc[nH]1,3.75 µM,1.26 µM,2.98,3.87,0.97 µM,1.28 µM,2.93,3.75 µM,3.75 µM,3.26,–,1.15 µM,–,–,3.75 µM,–,–,–
O=C(c1ccc(C(F)(F)F)cc1O)c1[nH]c(Cl)c(Cl)c1-n1c(C(=O)c2ccc(C(F)(F)F)cc2O)cc(Cl)c1Sc1cnccn1,1.21 µM,0.6 µM,2.02,5.85,0.25 µM,0.84 µM,1.45,1.46 µM,1.22 µM,5.03,11 µM,0.29 µM,0.18 µM,60.9,1.46 µM,–,–,–
O=C(c1ccc(C(F)(F)F)cc1O)c1[nH]c(Cl)c(Cl)c1-n1c(C(=O)c2ccc(C(F)(F)F)cc2O)cc(Cl)c1SCc1cccnc1,–,–,–,1.14,0.28 µM,–,–,–,–,1.33,0.86 µM,0.24 µM,0.1 µM,8.61,0.32 µM,0.27 µM,2.1,0.57 µM
Cc1nnc(Sc2c(Cl)cc(C(=O)c3ccc(C(F)(F)F)cc3O)n2-c2c(C(=O)c3ccc(C(F)(F)F)cc3O)[nH]c(Cl)c2Cl)s1,1.72 µM,0.93 µM,1.85,0.57,0.78 µM,0.85 µM,2.02,0.44 µM,1.72 µM,0.58,2.64 µM,0.76 µM,0.28 µM,9.43,0.44 µM,–,–,–
O=C(c1ccc(C(F)(F)F)cc1O)c1[nH]c(Cl)c(Cl)c1-n1c(C(=O)c2ccc(C(F)(F)F)cc2O)cc(Cl)c1SCc1ncccn1,–,–,–,–,–,–,–,0.61 µM,–,–,0.83 µM,–,0.08 µM,10.4,–,0.2 µM,2.78,0.56 µM
O=C(c1ccc(C(F)(F)F)cc1O)c1[nH]c(Cl)c(Cl)c1-n1c(C(=O)c2ccc(C(F)(F)F)cc2O)cc(Cl)c1Sc1nc2cccnc2[nH]1,19.2 µM,24.4 µM,0.79,0.54,31.4 µM,19.7 µM,0.98,1.8 µM,19.3 µM,0.75,19.9 µM,22.8 µM,5.9 µM,3.37,17.1 µM,–,–,–
O=C(c1ccc(C(F)(F)F)cc1O)c1[nH]c(Cl)c(Cl)c1-n1c(C(=O)c2ccc(C(F)(F)F)cc2O)cc(Cl)c1Sc1nc2ccccc2[nH]1,–,–,–,1.75,14.5 µM,23.2 µM,1.33,0.11 µM,30.8 µM,1.17,45.6 µM,21.7 µM,9.13 µM,5,25.3 µM,–,–,–
[N-]=[N+]=NCCCSc1c(Cl)cc(C(=O)c2ccc(C(F)(F)F)cc2O)n1-c1c(C(=O)c2ccc(C(F)(F)F)cc2O)[nH]c(Cl)c1Cl,0.31 µM,0.09 µM,3.44,–,0.09 µM,–,–,0.5 µM,–,–,–,–,–,–,–,–,–,–
O=C(c1ccc(C(F)(F)F)cc1O)c1[nH]c(Cl)c(Cl)c1-n1c(C(=O)c2ccc(C(F)(F)F)cc2O)cc(Cl)c1SCCc1ccccn1,0.61 µM,0.62 µM,0.98,4.07,0.15 µM,0.57 µM,1.07,25.4 µM,0.61 µM,–,0.35 µM,–,0.02 µM,17.5,–,0.05 µM,5.4,0.27 µM
O=C(c1ccc(C(F)(F)F)cc1O)c1[nH]c(Cl)c(Cl)c1-n1c(C(=O)c2ccc(C(F)(F)F)cc2O)cc(Cl)c1Sc1nnnn1CCO,–,–,–,1.25,6.41 µM,8.31 µM,1.47,8.01 µM,12.2 µM,–,15.3 µM,–,2.51 µM,6.1,–,4.77 µM,2.27,10.8 µM
